46 molecules from US7973047B2, “Beta-Secretase modulators and methods of use” (Amgen Inc., priority 2010, dated 2011) can be followed below.

The assay has as its system Aβ40 in conditioned medium of cells stably expressing Amyloid Precursor Protein (APP). Briefly: BACE cell-based assay: Aβ40 in conditioned medium by sandwich ELISA. As to conditions: cell based assay data of Table 4; unit inferred; read-out: Cell Assay. The method, then:
The cell-based assay measures inhibition or reduction of Aβ40 in conditioned medium of test compound treated cells expressing amyloid precursor protein.
Cells stably expressing Amyloid Precursor Protein (APP) were plated at a density of 40K cells/well in 96 well plates (Costar). The cells were cultivated for 24 hours at 37° C. and 5% CO2 in DMEM supplemented with 10% FBS. The test compounds were then added to cells in 10-point dose response concentrations with the starting concentration being either 100 μM or 10 μM. The compounds were diluted from stock solutions in DMSO and the final DMSO concentration of the test compounds on cells was 0.1%. After 24 h of incubation with the test compounds the supernatant conditioned media was collected and the Aβ40 levels were determined using a sandwich ELISA. The ICso of the compound was calculated from the percent of control or percent inhibition of Aβ40 as a function of the concentration of the test compound.
The sandwich ELISA to detect Aβ40 was performed in 96 well microtiter plates, which were pre-treated with goat anti-rabbit IgG (Pierce). The capture and detecting antibody pair that were used to detect Aβ40 from cell supernatants were affinity purified pAb40 (Biosource) and biotinylated 6E10 (Signet Labs Inc.), respectively. The optimal concentration for the pAb40 antibody was 3 μg/ml in Superblock/TBS (Pierce) that was supplemented with 0.05% Tween 20 (Sigma).
Cellular supernatants were incubated with the capture antibody for 3 h at 4° C., followed by 3 wash steps in TBS-tween (0.05%). The detecting antibody incubation was for 2 h at 4° C., again followed by the wash steps as described previously. The final readout of the ELISA is Time-Resolved Fluorescence (counts per minute) using Delfia reagents Streptavidin-Europium and Enhancement solutions (Perkin Elmer) and the Victor 2 multilabel counter (Perkin Elmer).
Consider `CC(=O)N[C@@H](Cc1ccc(F)cc1)[C@H](O)CN[C@@H]1CC2(CCCC2)C(=O)c2ccc(CC(C)(C)C)cc21` [compound 564, N-((1S,2R)-3-(((4′R)-6′-(2,2-dimethylpropyl)-1′-oxo-3′,4′-dihydro-1′H-spiro[cyclopentane-1,2′-naphthalen]-4′-yl)amino)-1-((4-fluorophenyl)methyl)-2-hydroxypropyl)acetamide], for which the IC50 stood at 569 nM.
Then `CCc1cnc2c(c1)[C@@H](NC[C@@H](O)[C@H](Cc1cccc(F)c1)NC(C)=O)CC1(CCC1)O2` [compound 566], with 29 nM; and `CC(=O)N[C@@H](Cc1cc(F)cc(Cl)c1)[C@H](O)CN[C@H]1CC2(CCC2)Oc2ncc(CC(C)(C)C)cc21` [compound 567], with 3.27 nM; and `CC(=O)N[C@@H](Cc1ccc(F)cc1)[C@H](O)CN[C@H]1CC2(CCC2)Oc2ncc(CC(C)(C)C)cc21` [compound 568], with 8.13 nM.
As for `CC(=O)N[C@@H](Cc1cccc(F)c1)[C@H](O)CN[C@H]1CC2(CCC2)Oc2cnc(CC(C)(C)C)cc21` [compound 569], the figure is 5.22 nM; as for `CC(=O)N[C@@H](Cc1ccc(F)cc1)[C@H](O)CN[C@H]1CC2(CCC2)Oc2cnc(CC(C)(C)C)cc21` [compound 570], 22.1 nM.
Regarding `CC(=O)N[C@@H](Cc1ccc(F)cc1)[C@H](O)CN[C@H]1CC2(CCC2)Oc2ncc(CC(C)(C)F)cc21` [compound 571], the IC50 was found to be 80.9 nM.
Then `CC(=O)N[C@@H](Cc1ccc(F)cc1)[C@H](O)CN[C@H]1CC(C)(C)Oc2ncc(CC(C)(C)C)cc21` [compound 572], with 13.8 nM; and `CC(=O)N[C@@H](Cc1cc(F)cc(F)c1)[C@H](O)CN[C@H]1CC(C)(C)Oc2ncc(CC(C)(C)C)cc21` [compound 573], with 3.12 nM; and `CC(=O)N[C@@H](Cc1ccc(F)cc1)[C@@H](O)CN[C@H]1CC2(CCC2)Oc2ncc(CC(C)(C)F)cc21` [compound 574], with 111 nM.
As for `CC(=O)N[C@@H](Cc1ccc(F)c(C)c1)[C@H](O)CN[C@H]1CC2(CCC2)Oc2ncc(CC(C)(C)C)cc21` [compound 575], the figure is 4.64 nM; as for `CC(=O)N[C@@H](Cc1ccc(C)c(F)c1)[C@H](O)CN[C@H]1CC2(CCC2)Oc2ncc(CC(C)(C)C)cc21` [compound 576], 2.15 nM; as for `COC(=O)N[C@@H](Cc1ccc(F)cc1)[C@H](O)CN[C@H]1CC2(CCC2)Oc2ncc(CC(C)(C)C)cc21` [compound 577], 60 nM.
Then `CC(=O)N[C@@H](Cc1ccc(F)c(C)c1)[C@H](O)CN[C@H]1CC2(CCC2)Oc2ncc(CC(C)(C)F)cc21` [compound 578], with 28.5 nM.
Turning to `COc1cccc(C[C@H](NC(C)=O)[C@H](O)CN[C@H]2CC3(CCC3)Oc3ncc(CC(C)(C)C)cc32)c1` [compound 579], the IC50 came out at 4.61 nM.
As for `CC(=O)N[C@@H](Cc1ccc(Cl)cc1)[C@H](O)CN[C@H]1CC2(CC2)Oc2ncc(CC(C)(C)C)cc21` [compound 580], the figure is 120 nM; as for `COCC(C)(C)Cc1cnc2c(c1)[C@@H](NC[C@@H](O)[C@H](Cc1ccc(F)cc1)NC(C)=O)CC1(CCC1)O2` [compound 581], 137 nM; as for `CC(=O)N[C@@H](Cc1ccccc1)[C@H](O)CN[C@H]1CC2(CCC2)Oc2c1cc(CC(C)(C)C)nc2N(C)C` [compound 582], 31.8 nM.
As for `CC(=O)N[C@@H](Cc1ccc(F)cc1)[C@H](O)CN[C@H]1CC2(CCC2)Oc2c1cc(CC(C)(C)C)nc2Cl` [compound 583], the figure is 112 nM.
Then `CCNc1nc(CC(C)(C)C)cc2c1OC1(CCC1)C[C@@H]2NC[C@@H](O)[C@H](Cc1ccc(F)cc1)NC(C)=O` [compound 584], with 5.29 nM; and `CC(=O)N[C@@H](Cc1ccc(F)cc1)[C@H](O)CN[C@H]1CC2(CCC2)Oc2c1cc(CC(C)(C)C)nc2NC(C)C` [compound 585], with 22.3 nM.
Regarding `CC(=O)N[C@@H](Cc1ccc(F)cc1)[C@H](O)CN[C@H]1CC2(CCC2)Oc2c1cc(CC(C)(C)C)nc2NC1CC1` [compound 586], the IC50 came out at 14 nM.
As for `CC(=O)N[C@@H](Cc1ccc(F)cc1)[C@H](O)CN[C@H]1CC2(CCC2)Oc2c1cc(CC(C)(C)C)nc2NC1CCOCC1` [compound 587], the figure is 8.48 nM; as for `CC(=O)N[C@@H](Cc1ccc(F)cc1)[C@H](O)CN[C@H]1CC2(CCC2)Oc2c1cc(CC(C)(C)C)nc2N(C)C` [compound 588], 52.3 nM.
`CC(=O)N[C@@H](Cc1ccc(F)cc1)[C@H](O)CN[C@H]1CC2(CCC2)Oc2c1cc(CC(C)(C)C)nc2NC(C)(C)C` [compound 589]: the IC50 came out at 615 nM.
Then `CNc1nc(CC(C)(C)C)cc2c1OC1(CCC1)C[C@@H]2NC[C@@H](O)[C@H](Cc1cccc(F)c1)NC(C)=O` [compound 590], with 1.41 nM; and `CCNc1nc(CC(C)(C)C)cc2c1OC1(CCC1)C[C@@H]2NC[C@@H](O)[C@H](Cc1cccc(F)c1)NC(C)=O` [compound 591], with 2.98 nM.
As for `CC(=O)N[C@@H](Cc1cccc(F)c1)[C@H](O)CN[C@H]1CC2(CCC2)Oc2c1cc(CC(C)(C)C)nc2NC1CCOCC1` [compound 592], the figure is 3.24 nM; as for `CC(=O)N[C@@H](Cc1cccc(F)c1)[C@H](O)CN[C@H]1CC2(CCC2)Oc2c1cc(CC(C)(C)C)nc2N(C)C` [compound 593], 23.6 nM; as for `CC(=O)N[C@@H](Cc1cccc(F)c1)[C@H](O)CN[C@H]1CC2(CCC2)Oc2c1cc(CC(C)(C)C)[nH]c2=O` [compound 594], 23.4 nM.
As for `CC(=O)N[C@@H](Cc1cc(F)cc(F)c1)[C@H](O)CN[C@H]1CC2(CCC2)Oc2c1cc(CC(C)(C)C)nc2N(C)C` [compound 598], the figure is 26.8 nM; as for `CC(=O)N[C@@H](Cc1ccc(N(C)C)cc1)[C@H](O)CN[C@H]1CC2(CCC2)Oc2c1cc(CC(C)(C)C)nc2N(C)C` [compound 599], 167 nM; as for `CC(=O)N[C@@H](Cc1ccc(Cl)cc1)[C@H](O)CN[C@H]1CC2(CCC2)Oc2c1cc(CC(C)(C)C)nc2N(C)C` [compound 600], 634 nM.
As for `CC(=O)N[C@@H](Cc1cccc(F)c1F)[C@H](O)CN[C@H]1CC2(CCC2)Oc2c1cc(CC(C)(C)C)nc2N(C)C` [compound 601], the IC50 is 227 nM.
As for `CC(=O)N[C@@H](Cc1cccc(F)c1)[C@H](O)CN[C@H]1CC2(CCC2)Oc2c1cc(CC(C)(C)C)nc2NC1CC1` [compound 602], the figure is 2.89 nM.
Then `CC(=O)N[C@@H](Cc1cccc(F)c1)[C@H](O)CN[C@H]1CC2(CCC2)Oc2c1cc(CC(C)(C)C)nc2NCCNC(=O)OC(C)(C)C` [compound 603], with 12.9 nM; and `COC1CN(c2nc(CC(C)(C)C)cc3c2OC2(CCC2)C[C@@H]3NC[C@@H](O)[C@H](Cc2cccc(F)c2)NC(C)=O)C1` [compound 604], with 5.79 nM; and `CC(=O)N[C@@H](Cc1cccc(F)c1)[C@H](O)CN[C@H]1CC2(CCC2)Oc2c1cc(CC(C)(C)C)nc2N` [compound 605], with 1.56 nM.
As for `CC(=O)N[C@@H](Cc1cccc(F)c1)[C@H](O)CN[C@H]1CC2(CCC2)Oc2c1cc(CC(C)(C)C)nc2NCCN` [compound 606], the figure is 4.43 nM; as for `CC(=O)N[C@@H](Cc1ccc(F)cc1)[C@H](O)CN[C@@H]1CC2(CCC2)Oc2c1cc(CC(C)(C)C)nc2OC(C)C` [compound 607], 80.3 nM; as for `CC(=O)N[C@@H](Cc1ccc(F)cc1)[C@H](O)CN[C@H]1CC2(CCC2)Oc2c1cc(CC(C)(C)C)nc2OC(C)C` [compound 608, N-((1S,2R)-3-(((4′S)-6′-(2,2-dimethylpropyl)-8′-((1-methylethyl)oxy)-3′,4′-dihydrospiro[cyclobutane-1,2′-pyrano[2,3-c]pyridin]-4′-yl)amino)-1-((4-fluorophenyl)methyl)-2-hydroxypropyl)acetamide], 64.3 nM.
For `CC(=O)N[C@@H](Cc1cccc(F)c1)[C@H](O)CN[C@@H]1CC2(CCC2)Oc2c1cc(CC(C)(C)C)nc2OC(C)C` [compound 609], the IC50 stood at 66.7 nM.
Then `CC(=O)N[C@@H](Cc1cc(F)cc(F)c1)[C@H](O)CN[C@@H]1CC2(CCC2)Oc2c1cc(CC(C)(C)C)nc2OC(C)C` [compound 611], with 161 nM; and `CC(=O)N[C@@H](Cc1cc(F)cc(F)c1)[C@H](O)CN[C@H]1CC2(CCC2)Oc2c1cc(CC(C)(C)C)nc2OC(C)C` [compound 612, N-((1S,2R)-1-((3,5-difluorophenyl)methyl)-3-(((4′S)-6′-(2,2-dimethylpropyl)-8′-((1-methylethyl)oxy)-3′,4′-dihydrospiro[cyclobutane-1,2′-pyrano[2,3-c]pyridin]-4′-yl)amino)-2-hydroxypropyl)acetamide], with 24.2 nM.
Then `COc1nc(CC(C)(C)C)cc2c1OC1(CCC1)C[C@@H]2NC[C@@H](O)[C@H](Cc1ccc(F)cc1)NC(C)=O` [compound 613], with 103 nM; and `COC1CN(c2nc(CC(C)(C)C)cc3c2OC2(CCC2)C[C@@H]3NC[C@@H](O)[C@H](Cc2ccc(F)cc2)NC(C)=O)C1` [compound 614], with 59 nM.
